Measured values as given in the kinase profiling compilation of Christmann-Franck et al. (2016).
pIC50: −log10 of the molar value.

Tests used:
[1] = tested on: KIT (human), P10721 [V559D/V654A]; assay: KINOMEscan competition binding; conditions: compound 10.0 µM
[2] = molecular target: TIE1 (human) (UniProt P35590); assay: KINOMEscan competition binding; conditions: compound 10.0 µM
[3] = molecular target: CDK14 (human) (UniProt O94921); assay: KINOMEscan competition binding; conditions: compound 10.0 µM
Chain of CDK14 (human) (O94921 whole entry, looked up): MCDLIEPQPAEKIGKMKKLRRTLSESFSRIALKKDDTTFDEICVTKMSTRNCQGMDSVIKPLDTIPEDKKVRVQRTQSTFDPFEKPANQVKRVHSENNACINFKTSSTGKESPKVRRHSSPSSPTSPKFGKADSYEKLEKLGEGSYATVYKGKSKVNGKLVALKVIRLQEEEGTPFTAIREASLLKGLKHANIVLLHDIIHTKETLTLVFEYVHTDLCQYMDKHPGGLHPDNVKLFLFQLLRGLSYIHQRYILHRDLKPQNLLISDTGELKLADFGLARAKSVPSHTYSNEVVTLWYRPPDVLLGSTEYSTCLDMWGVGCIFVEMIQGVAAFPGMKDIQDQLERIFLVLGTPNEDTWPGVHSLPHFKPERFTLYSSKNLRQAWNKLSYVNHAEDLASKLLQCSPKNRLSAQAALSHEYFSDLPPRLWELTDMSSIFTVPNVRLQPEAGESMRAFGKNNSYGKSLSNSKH

[4] = molecular target: GAK (human) (UniProt O14976); assay: KINOMEscan competition binding; conditions: compound 10.0 µM
Chain of GAK (human) (O14976 whole entry, looked up): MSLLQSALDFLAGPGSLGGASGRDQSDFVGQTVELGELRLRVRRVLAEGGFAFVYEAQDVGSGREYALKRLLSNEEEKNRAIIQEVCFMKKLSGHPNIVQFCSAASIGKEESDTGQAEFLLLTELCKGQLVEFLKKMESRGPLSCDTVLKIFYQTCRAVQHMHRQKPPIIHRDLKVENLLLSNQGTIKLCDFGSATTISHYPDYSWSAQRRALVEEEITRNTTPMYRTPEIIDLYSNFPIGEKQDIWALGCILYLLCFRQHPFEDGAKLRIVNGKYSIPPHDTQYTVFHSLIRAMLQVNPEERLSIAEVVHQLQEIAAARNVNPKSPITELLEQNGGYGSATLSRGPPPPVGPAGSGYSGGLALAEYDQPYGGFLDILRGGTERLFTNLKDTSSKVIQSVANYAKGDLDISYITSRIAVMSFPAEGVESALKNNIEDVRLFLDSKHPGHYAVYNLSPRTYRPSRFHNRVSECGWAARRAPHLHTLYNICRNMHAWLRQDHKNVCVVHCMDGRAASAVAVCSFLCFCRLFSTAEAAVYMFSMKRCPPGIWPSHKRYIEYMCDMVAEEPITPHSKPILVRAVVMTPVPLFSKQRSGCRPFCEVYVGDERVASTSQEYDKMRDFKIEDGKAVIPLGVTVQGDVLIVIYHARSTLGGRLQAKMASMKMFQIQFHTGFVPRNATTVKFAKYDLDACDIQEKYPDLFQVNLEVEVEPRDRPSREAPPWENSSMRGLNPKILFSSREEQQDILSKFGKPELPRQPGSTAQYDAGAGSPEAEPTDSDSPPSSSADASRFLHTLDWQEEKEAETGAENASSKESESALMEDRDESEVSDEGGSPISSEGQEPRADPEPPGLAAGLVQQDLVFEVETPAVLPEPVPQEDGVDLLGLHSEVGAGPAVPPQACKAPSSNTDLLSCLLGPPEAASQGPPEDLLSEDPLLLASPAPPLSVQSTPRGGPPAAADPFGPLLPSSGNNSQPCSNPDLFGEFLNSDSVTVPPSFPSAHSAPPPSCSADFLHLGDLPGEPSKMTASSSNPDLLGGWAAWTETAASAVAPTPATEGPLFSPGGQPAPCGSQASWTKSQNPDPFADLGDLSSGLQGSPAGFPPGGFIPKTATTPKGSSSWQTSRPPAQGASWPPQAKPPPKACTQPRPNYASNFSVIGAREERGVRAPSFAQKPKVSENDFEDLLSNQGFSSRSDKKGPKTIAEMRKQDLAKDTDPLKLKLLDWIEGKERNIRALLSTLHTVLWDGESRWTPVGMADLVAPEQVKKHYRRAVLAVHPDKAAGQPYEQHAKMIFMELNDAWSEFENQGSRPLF

[5] = molecular target: PDGFRA (human) (UniProt P16234); assay: KINOMEscan competition binding; conditions: compound 10.0 µM
Chain of PDGFRA (human) (P16234 whole entry, looked up): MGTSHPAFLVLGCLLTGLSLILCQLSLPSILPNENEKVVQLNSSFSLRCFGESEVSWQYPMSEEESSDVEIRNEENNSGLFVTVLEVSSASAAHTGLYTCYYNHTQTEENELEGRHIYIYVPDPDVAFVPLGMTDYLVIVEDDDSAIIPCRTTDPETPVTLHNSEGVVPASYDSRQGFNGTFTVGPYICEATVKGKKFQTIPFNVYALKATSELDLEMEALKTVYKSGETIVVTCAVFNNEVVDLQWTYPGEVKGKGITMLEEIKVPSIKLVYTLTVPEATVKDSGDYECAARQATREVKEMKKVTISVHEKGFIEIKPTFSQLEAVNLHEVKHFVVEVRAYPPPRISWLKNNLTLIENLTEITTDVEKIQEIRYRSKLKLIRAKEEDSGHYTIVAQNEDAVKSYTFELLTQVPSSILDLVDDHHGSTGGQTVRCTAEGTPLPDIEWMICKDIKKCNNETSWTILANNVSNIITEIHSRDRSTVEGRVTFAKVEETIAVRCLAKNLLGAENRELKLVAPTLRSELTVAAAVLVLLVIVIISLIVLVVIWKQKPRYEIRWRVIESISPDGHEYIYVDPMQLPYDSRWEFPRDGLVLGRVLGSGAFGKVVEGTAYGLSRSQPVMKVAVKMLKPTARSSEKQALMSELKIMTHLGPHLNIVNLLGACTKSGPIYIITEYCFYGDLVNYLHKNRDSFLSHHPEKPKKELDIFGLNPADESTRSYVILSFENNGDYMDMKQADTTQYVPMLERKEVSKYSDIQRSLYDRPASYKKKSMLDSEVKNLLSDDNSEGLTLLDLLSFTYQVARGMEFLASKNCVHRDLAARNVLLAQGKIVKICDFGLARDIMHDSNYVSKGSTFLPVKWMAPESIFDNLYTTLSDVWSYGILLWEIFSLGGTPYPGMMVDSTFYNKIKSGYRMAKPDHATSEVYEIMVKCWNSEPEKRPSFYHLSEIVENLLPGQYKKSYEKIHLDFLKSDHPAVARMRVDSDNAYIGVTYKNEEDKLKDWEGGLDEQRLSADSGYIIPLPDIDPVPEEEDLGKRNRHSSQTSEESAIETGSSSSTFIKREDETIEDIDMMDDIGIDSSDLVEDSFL

[6] = molecular target: MAPK12 (human) (UniProt P53778); assay: KINOMEscan competition binding; conditions: compound 10.0 µM
Chain of MAPK12 (human) (P53778 whole entry, looked up): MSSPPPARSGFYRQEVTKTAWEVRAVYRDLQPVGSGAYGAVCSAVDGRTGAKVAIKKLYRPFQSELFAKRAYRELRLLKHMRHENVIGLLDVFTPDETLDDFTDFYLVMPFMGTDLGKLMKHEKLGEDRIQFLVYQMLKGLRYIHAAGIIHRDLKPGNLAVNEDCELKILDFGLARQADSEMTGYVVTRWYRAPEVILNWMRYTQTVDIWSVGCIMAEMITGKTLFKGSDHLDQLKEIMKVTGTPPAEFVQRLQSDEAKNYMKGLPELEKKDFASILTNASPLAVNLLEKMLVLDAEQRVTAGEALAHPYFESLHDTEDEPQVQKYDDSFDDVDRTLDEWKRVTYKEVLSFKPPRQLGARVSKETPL

[7] = molecular target: ULK3 (human) (UniProt Q6PHR2); assay: KINOMEscan competition binding; conditions: compound 10.0 µM
[8] = tested on: EGFR (human), P00533 [L858R]; assay: KINOMEscan competition binding; conditions: compound 10.0 µM
[9] = molecular target: IKBKB (human) (UniProt O14920); assay: KINOMEscan competition binding; conditions: compound 10.0 µM
[10] = molecular target: CHUK (human) (UniProt O15111); assay: KINOMEscan competition binding; conditions: compound 10.0 µM
[11] = tested on: FLT3 (human), P36888 [N841I]; assay: KINOMEscan competition binding; conditions: compound 10.0 µM
[12] = molecular target: MAPK8 (human) (UniProt P45983); assay: KINOMEscan competition binding; conditions: compound 10.0 µM
Chain of MAPK8 (human) (P45983 whole entry, looked up): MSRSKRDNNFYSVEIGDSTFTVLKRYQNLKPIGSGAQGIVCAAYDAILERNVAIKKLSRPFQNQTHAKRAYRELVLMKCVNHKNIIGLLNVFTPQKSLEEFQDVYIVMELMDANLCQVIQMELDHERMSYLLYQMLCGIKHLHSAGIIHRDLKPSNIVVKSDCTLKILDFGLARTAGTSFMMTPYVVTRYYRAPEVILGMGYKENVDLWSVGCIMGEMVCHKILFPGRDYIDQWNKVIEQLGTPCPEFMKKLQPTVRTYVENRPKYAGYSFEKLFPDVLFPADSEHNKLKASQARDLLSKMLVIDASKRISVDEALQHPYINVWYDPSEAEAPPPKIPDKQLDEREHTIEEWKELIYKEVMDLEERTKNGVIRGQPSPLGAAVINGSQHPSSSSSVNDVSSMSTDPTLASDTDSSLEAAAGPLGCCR

[13] = molecular target: BLK (human) (UniProt P51451); assay: KINOMEscan competition binding; conditions: compound 10.0 µM
[14] = molecular target: INSR (human) (UniProt P06213); assay: KINOMEscan competition binding; conditions: compound 10.0 µM
[15] = molecular target: PRKACB (human) (UniProt P22694); assay: KINOMEscan competition binding; conditions: compound 10.0 µM
[16] = molecular target: LATS2 (human) (UniProt Q9NRM7); assay: KINOMEscan competition binding; conditions: compound 10.0 µM
[17] = molecular target: ALK (human) (UniProt Q9UM73); assay: KINOMEscan competition binding; conditions: compound 10.0 µM
[18] = molecular target: RPS6KA5 KD1 (human) (UniProt O75582); assay: KINOMEscan competition binding; conditions: compound 10.0 µM
[19] = molecular target: FES (human) (UniProt P07332); assay: Z-Lyte, FRET
[20] = molecular target: TGFBR1 (human) (UniProt P36897); assay: KINOMEscan competition binding; conditions: compound 10.0 µM
[21] = molecular target: TNK2 (human) (UniProt Q07912); assay: KINOMEscan competition binding; conditions: compound 10.0 µM
[22] = molecular target: PIP5K1A (human) (UniProt Q99755); assay: KINOMEscan competition binding; conditions: compound 10.0 µM
[23] = molecular target: PKMYT1 (human) (UniProt Q99640); assay: KINOMEscan competition binding; conditions: compound 10.0 µM
[24] = molecular target: CSNK1G1 (human) (UniProt Q9HCP0); assay: KINOMEscan competition binding; conditions: compound 10.0 µM
[25] = molecular target: STK33 (human) (UniProt Q9BYT3); assay: KINOMEscan competition binding; conditions: compound 10.0 µM
[26] = molecular target: CDC42BPB (human) (UniProt Q9Y5S2); assay: KINOMEscan competition binding; conditions: compound 10.0 µM
[27] = molecular target: ROS1 (human) (UniProt P08922); assay: KINOMEscan competition binding; conditions: compound 10.0 µM
[28] = molecular target: RPS6KA6 KD1 (human) (UniProt Q9UK32); assay: KINOMEscan competition binding; conditions: compound 10.0 µM
[29] = molecular target: RPS6KA1 KD1 (human) (UniProt Q15418); assay: KINOMEscan competition binding; conditions: compound 10.0 µM
[30] = molecular target: ADCK4 (human) (UniProt Q96D53); assay: KINOMEscan competition binding; conditions: compound 10.0 µM
[31] = molecular target: MAPKAPK5 (human) (UniProt Q8IW41); assay: KINOMEscan competition binding; conditions: compound 10.0 µM
[32] = molecular target: ITK (human) (UniProt Q08881); assay: KINOMEscan competition binding; conditions: compound 10.0 µM
[33] = molecular target: MAP2K3 (human) (UniProt P46734); assay: KINOMEscan competition binding; conditions: compound 10.0 µM
[34] = molecular target: NEK9 (human) (UniProt Q8TD19); assay: KINOMEscan competition binding; conditions: compound 10.0 µM
[35] = molecular target: MARK4 (human) (UniProt Q96L34); assay: KINOMEscan competition binding; conditions: compound 10.0 µM
[36] = molecular target: STK16 (human) (UniProt O75716); assay: KINOMEscan competition binding; conditions: compound 10.0 µM
[37] = molecular target: PRKD2 (human) (UniProt Q9BZL6); assay: KINOMEscan competition binding; conditions: compound 10.0 µM
[38] = molecular target: MAPK1 (human) (UniProt P28482); assay: KINOMEscan competition binding; conditions: for kinase still bound, per cent of control: compound 10.0 µM
Chain of MAPK1 (human) (P28482 whole entry, looked up): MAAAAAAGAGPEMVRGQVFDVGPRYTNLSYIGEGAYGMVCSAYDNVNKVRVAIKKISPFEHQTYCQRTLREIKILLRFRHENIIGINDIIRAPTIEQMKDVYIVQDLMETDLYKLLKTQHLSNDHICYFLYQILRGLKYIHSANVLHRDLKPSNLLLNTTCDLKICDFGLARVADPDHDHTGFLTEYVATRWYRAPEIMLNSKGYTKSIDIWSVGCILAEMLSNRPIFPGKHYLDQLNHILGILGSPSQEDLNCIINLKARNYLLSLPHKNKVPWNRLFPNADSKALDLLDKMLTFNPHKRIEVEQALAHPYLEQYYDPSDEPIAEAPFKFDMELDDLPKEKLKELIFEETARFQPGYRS

[39] = molecular target: SRPK1 (human) (UniProt Q96SB4); assay: KINOMEscan competition binding; conditions: compound 10.0 µM
[40] = molecular target: TAOK3 (human) (UniProt Q9H2K8); assay: KINOMEscan competition binding; conditions: compound 10.0 µM
[41] = molecular target: TSSK1B (human) (UniProt Q9BXA7); assay: KINOMEscan competition binding; conditions: compound 10.0 µM
[42] = molecular target: MET (human) (UniProt P08581); assay: KINOMEscan competition binding; conditions: compound 10.0 µM

Chain of KIT (human), P10721 [V559D/V654A] (P10721 whole entry V559D/V654A, looked up): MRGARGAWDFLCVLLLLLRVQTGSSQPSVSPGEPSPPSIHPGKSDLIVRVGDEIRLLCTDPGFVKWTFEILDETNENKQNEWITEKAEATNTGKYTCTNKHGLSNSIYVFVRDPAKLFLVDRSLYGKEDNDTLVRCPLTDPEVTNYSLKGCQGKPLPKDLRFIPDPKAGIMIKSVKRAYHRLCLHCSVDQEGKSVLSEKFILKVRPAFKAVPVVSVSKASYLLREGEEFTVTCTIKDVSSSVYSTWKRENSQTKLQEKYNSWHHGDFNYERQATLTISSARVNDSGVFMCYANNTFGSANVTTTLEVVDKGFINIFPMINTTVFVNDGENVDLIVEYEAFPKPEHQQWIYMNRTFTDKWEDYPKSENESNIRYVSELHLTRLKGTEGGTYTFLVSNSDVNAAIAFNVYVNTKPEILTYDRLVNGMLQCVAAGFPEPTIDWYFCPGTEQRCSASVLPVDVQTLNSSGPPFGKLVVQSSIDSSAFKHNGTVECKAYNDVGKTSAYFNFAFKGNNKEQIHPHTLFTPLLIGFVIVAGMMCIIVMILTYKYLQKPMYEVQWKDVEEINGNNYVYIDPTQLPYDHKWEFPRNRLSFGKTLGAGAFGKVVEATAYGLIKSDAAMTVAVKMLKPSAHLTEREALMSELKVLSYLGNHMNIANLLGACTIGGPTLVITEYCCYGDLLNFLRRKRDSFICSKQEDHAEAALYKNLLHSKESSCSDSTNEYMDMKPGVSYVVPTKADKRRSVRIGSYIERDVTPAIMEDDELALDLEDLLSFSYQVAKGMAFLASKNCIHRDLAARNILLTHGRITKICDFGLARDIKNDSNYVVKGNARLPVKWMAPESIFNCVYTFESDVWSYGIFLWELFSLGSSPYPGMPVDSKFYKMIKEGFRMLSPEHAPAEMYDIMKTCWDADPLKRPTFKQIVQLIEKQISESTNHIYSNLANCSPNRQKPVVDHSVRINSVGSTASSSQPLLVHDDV

CCN1CCN(Cc2ccc(NC(=O)c3ccc(C)c(Oc4ccnc5[nH]ccc45)c3)cc2C(F)(F)F)CC1
kinase still bound, per cent of control [1]: 2.7%
kinase still bound, per cent of control [2]: 0.95%
kinase still bound, per cent of control [3]: 0.4%
kinase still bound, per cent of control [4]: 31%
kinase still bound, per cent of control [5]: 0.6%
kinase still bound, per cent of control [6]: 0%
kinase still bound, per cent of control [7]: 0.1%
kinase still bound, per cent of control [8]: 14%
kinase still bound, per cent of control [9]: 24%
kinase still bound, per cent of control [10]: 0.95%
kinase still bound, per cent of control [11]: 0%
kinase still bound, per cent of control [12]: 0%
kinase still bound, per cent of control [13]: 0.45%
kinase still bound, per cent of control [14]: 30%
kinase still bound, per cent of control [15]: 14%
kinase still bound, per cent of control [16]: 13%
kinase still bound, per cent of control [17]: 0.55%
kinase still bound, per cent of control [18]: 4.7%
pIC50 [19]: 3.53

COc1cc(N2CCC(N3CCN(C)CC3)CC2)ccc1Nc1ncc(Cl)c(Nc2ccccc2S(=O)(=O)C(C)C)n1
kinase still bound, per cent of control [20]: 0.2%
kinase still bound, per cent of control [21]: 0%
kinase still bound, per cent of control [1]: 7.4%
kinase still bound, per cent of control [22]: 1.3%
kinase still bound, per cent of control [23]: 40%
kinase still bound, per cent of control [24]: 40%
kinase still bound, per cent of control [25]: 0.1%
kinase still bound, per cent of control [3]: 40%
kinase still bound, per cent of control [4]: 0.1%
kinase still bound, per cent of control [5]: 0.85%
kinase still bound, per cent of control [6]: 40%
kinase still bound, per cent of control [7]: 0%
kinase still bound, per cent of control [26]: 25%
kinase still bound, per cent of control [27]: 0.45%
kinase still bound, per cent of control [8]: 0.1%
kinase still bound, per cent of control [28]: 1.1%
kinase still bound, per cent of control [29]: 0.25%
kinase still bound, per cent of control [9]: 40%
kinase still bound, per cent of control [30]: 0%
kinase still bound, per cent of control [10]: 40%
kinase still bound, per cent of control [31]: 40%
kinase still bound, per cent of control [32]: 0.1%
kinase still bound, per cent of control [33]: 0.8%
kinase still bound, per cent of control [34]: 3.3%
kinase still bound, per cent of control [35]: 0%
kinase still bound, per cent of control [36]: 2.8%
kinase still bound, per cent of control [37]: 0.05%
kinase still bound, per cent of control [38]: 0.3%
kinase still bound, per cent of control [39]: 2.2%
kinase still bound, per cent of control [40]: 0.1%
kinase still bound, per cent of control [12]: 5.2%
kinase still bound, per cent of control [13]: 0.1%
kinase still bound, per cent of control [14]: 0%
kinase still bound, per cent of control [15]: 9.9%
kinase still bound, per cent of control [41]: 0%
kinase still bound, per cent of control [42]: 0%
kinase still bound, per cent of control [16]: 17%
kinase still bound, per cent of control [18]: 40%

CCOc1cc(N2CCC(N3CCCCC3)CC2)ccc1Nc1nc(Nc2ccccc2S(=O)(=O)C(C)C)c2cn[nH]c2n1
kinase still bound, per cent of control [20]: 95%
kinase still bound, per cent of control [21]: 3.4%
kinase still bound, per cent of control [1]: 100%
kinase still bound, per cent of control [22]: 39%
kinase still bound, per cent of control [2]: 76%
kinase still bound, per cent of control [23]: 69%
kinase still bound, per cent of control [24]: 71%
kinase still bound, per cent of control [25]: 15%
kinase still bound, per cent of control [3]: 100%
kinase still bound, per cent of control [4]: 6%
kinase still bound, per cent of control [5]: 100%
kinase still bound, per cent of control [6]: 100%
kinase still bound, per cent of control [7]: 100%
kinase still bound, per cent of control [26]: 100%
kinase still bound, per cent of control [27]: 5.8%
kinase still bound, per cent of control [8]: 6.6%
kinase still bound, per cent of control [28]: 23%
kinase still bound, per cent of control [29]: 1.8%
kinase still bound, per cent of control [9]: 100%
kinase still bound, per cent of control [30]: 29%
kinase still bound, per cent of control [10]: 100%
kinase still bound, per cent of control [31]: 100%
kinase still bound, per cent of control [32]: 40%
kinase still bound, per cent of control [33]: 7%
kinase still bound, per cent of control [34]: 100%
kinase still bound, per cent of control [35]: 71%
kinase still bound, per cent of control [36]: 76%
kinase still bound, per cent of control [37]: 96%
pIC50 [38]: 2.19
kinase still bound, per cent of control [38]: 0.7%
kinase still bound, per cent of control [39]: 100%
kinase still bound, per cent of control [40]: 36%
kinase still bound, per cent of control [11]: 100%
kinase still bound, per cent of control [12]: 4.3%
kinase still bound, per cent of control [13]: 100%
kinase still bound, per cent of control [14]: 0.3%
kinase still bound, per cent of control [15]: 100%
kinase still bound, per cent of control [41]: 92%
kinase still bound, per cent of control [42]: 100%
kinase still bound, per cent of control [16]: 88%
kinase still bound, per cent of control [17]: 34%
kinase still bound, per cent of control [18]: 100%
pIC50 [19]: 4.17
